Test results reported in patent publication US20010041676A1, “Glycosides and orthoester glycosides of glucocorticoids and uses thereof” (priority 2000, published 2001).
Where two headings read alike, the source gives them in different places.

Assays:
[1] = rat serum; for Serum prednisolone-glycoside: prednisolone-glucoside group (29 mg); for Serum Prednisolone: prednisolone-glucoside group (29 mg, 20 mg equivalent)
Protocol: (§1) 1 ml of rat serum was introduced into Varian-abselut (3 ml) cartridge (Part number SP12103100; analytical sample preparation and solid phase extraction use cartridge). Suction was applied and the cartridge was washed with 3 ml of water followed by 2 ml of water. The cartridges were dried under suction for 5 minutes and a jet stream of argon was blown to dry the trace amounts of water. The cartridge was washed once with 3 ml of hexane and the steroidal portion was eluted with 5 ml of methanol. The methanol portion was dried under nitrogen. The dried extract, which contains prednisolone or the glucoside, was constituted with 300 μl of ethyl acetate-methanol mixture (290 μl of ethyl acetate and 10 μl of methanol). 100 μl injections were made using manual injections in the HPLC instrument.
(§2) Hewlett Packard-Agilent 1100 series instrument with UV detector G1315A and a manual injector with a 100 μL loop were used in the assay.
(§3) The solvents used in the elution were a mixture of methanol (2 parts), ethyl acetate (42 parts) and hexane (56 parts). The mixture was run at a flow rate of 1 ml per minute.
(§4) The serum prednisolone and prednisolone glucoside levels were assessed from the animals dosed with either 20 mg of prednisolone or 29 mg of prednisolone glucoside (20 mg equivalent). The animals were sacrificed after 30 minutes and 60 minutes.
(§5) The serum prednisolone levels were calculated based upon the HPLC analyses of prednisolone and prednisolone glucoside. These values are calculated based upon the mAU and area values calculated against the standards.

[2] = pH 1.0, 20 mg/ml, room temperature, up to 72 hours
Protocol: The acid stability of prednisolone glucoside was qualitatively assessed by thin layer chromatography (TLC).
Prednisolone glucoside was suspended in pH 1.0 (freshly prepared from 10 M HCl solution) at a concentration of 20 mg/ml and stirred as a turbid solution at room temperature for 72 hours. At 24 and 48 hours, 100 μl aliquots were removed and diluted with about 200 μl of methanol to make a homogeneous solution. Approximately 50 μl was applied to a TLC plate (Sigma-Aldrich #Z 29298-2, made by Merck—silica TLC plates) with several repeated small applications. As controls, standard applications of 10 μg of fresh prednisolone glucoside, dissolved in 100 μl of methanol, and about 10 μg of prednisolone, in 50 μl of methanol, were applied at separate spots. Several repeated small applications were used to minimize the size of applied spot.
The TLC plates were initially eluted with ethyl acetate and then illuminated with the Aldrich's hand held model UV source (short UV light source used, Spectroline #1281657). The TLC plates were then dried, reeluted with methanol and then illuminated again with the UV source.

in vivo = settings: rat, serum, 20 mg
Protocol: as §1, §2, §3, §4, §5

Structure (SMILES) | Serum prednisolone-glycoside ([1]; 30 mins) [ng/mL] | Serum prednisolone-glycoside ([1]; 60 mins) [ng/mL] | Serum Prednisolone ([1]; 30 mins) [ng/mL] | Serum Prednisolone ([1]; 60 mins) [ng/mL] | Acid stability (qualitative, TLC) [2] | concentration at 30 min (in vivo) [ng/mL] | concentration at 60 min (in vivo) [ng/mL]
C[C@]12C=CC(=O)C=C1CC[C@@H]1[C@@H]2[C@@H](O)C[C@@]2(C)[C@H]1CC[C@]2(O)C(=O)CO[C@@H]1O[C@H](CO)[C@@H](O)[C@H](O)[C@H]1O [Prednisolone-glucoside, 1,4-pregnadiene-11β-17α-diol-21-O-1′-β′-glucopyranosyl-3,20-dione] | 639 | 0 | 861 | 349.5 | stable | – | –
C[C@]12C=CC(=O)C=C1CC[C@@H]1[C@@H]2[C@@H](O)C[C@@]2(C)[C@H]1CC[C@]2(O)C(=O)CO [Prednisolone, prednisolone] | – | – | – | – | – | 350 | 156
